# Experimental data taken from US20250002954A1, “Novel Compound, Use Thereof, and Method for Producing Same, and Compound-Containing Composition, Method for Producing 4-Trehalosamine, and Microorganism” (Microbial Chemistry Research Foundation, priority 2021, published 2025).
# Assays:
# [1] = molecular target: T1, yeast alcohol dehydrogenase (ADH) (Saccharomyces cerevisiae, UniProt P00330); assay: Evaluation of ADH-protective activity under freeze-dried condition; assay type: biochemical; conditions: for ADH activity after freeze-drying: freeze-dried with 1% or 3% sugar, GOL 3%
# T1 construct: purchased Oriental Yeast Co., Ltd
# T1 sequence (P00330 1-348): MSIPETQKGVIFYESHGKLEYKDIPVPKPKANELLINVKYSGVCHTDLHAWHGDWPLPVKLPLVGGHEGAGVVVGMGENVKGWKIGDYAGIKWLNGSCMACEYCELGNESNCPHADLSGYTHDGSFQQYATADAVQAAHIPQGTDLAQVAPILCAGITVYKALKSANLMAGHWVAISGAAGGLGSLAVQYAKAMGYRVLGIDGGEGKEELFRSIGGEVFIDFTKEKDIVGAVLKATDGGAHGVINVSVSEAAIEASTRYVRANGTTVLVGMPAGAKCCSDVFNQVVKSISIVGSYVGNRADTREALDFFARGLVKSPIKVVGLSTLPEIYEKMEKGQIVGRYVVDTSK
# Method: Test samples 1 to 12 containing yeast alcohol dehydrogenase (ADH) were prepared as follows and protein-protective activity of various kinds of added sugar under freeze-dried condition was evaluated.
# Yeast alcohol dehydrogenase (manufactured by Oriental Yeast Co., Ltd.) was dissolved in water at 1,000 units/mL and then diluted to 6 units/mL with TBS (manufactured by Takara Bio Inc.). 50 μL of TBS containing 2% trehalose (TRH) was added to and mixed with 50 μL of this enzyme solution and the mixture was frozen at −80° C. for 10 minutes. It was then freeze-dried for 20 hours with a freeze dryer (FLEXI-DRY, manufactured by FTS systems INC., Warminster) connected to a vacuum pump (P65D, manufactured by PHIL Sato Vac INC.), preparing freeze-dried product of enzyme with 1% TRH.
# Freeze-dried product of enzyme with 3% TRH was prepared in a similar manner to the preparation method of test sample 4 except that the final concentration of trehalose was changed to 3% in the preparation method of test sample 4.
# Freeze-dried product of enzyme with 1% 4TA was prepared in a similar manner to the preparation method of test sample 4 except that trehalose was changed to 4-trehalosamine (4TA) in the preparation method of test sample 4.
# Freeze-dried product of enzyme with 3% 4TA was prepared in a similar manner to the preparation method of test sample 5 except that trehalose was changed to 4-trehalosamine (4TA) in the preparation method of test sample 5.
# Freeze-dried product of enzyme with 1% MLT was prepared in a similar manner to the preparation method of test sample 4 except that trehalose was changed to maltose (MLT) in the preparation method of test sample 4.
# Freeze-dried product of enzyme with 3% MLT was prepared in a similar manner to the preparation method of test sample 5 except that trehalose was changed to maltose (MLT) in the preparation method of test sample 5.
# Freeze-dried product of enzyme with 1% SCR was prepared in a similar manner to the preparation method of test sample 4 except that trehalose was changed to sucrose (SCR) in the preparation method of test sample 4.
# Freeze-dried product of enzyme with 3% SCR was prepared in a similar manner to the preparation method of test sample 5 except that trehalose was changed to sucrose (SCR) in the preparation method of test sample 5.
# Freeze-dried product of enzyme with 3% GOL was prepared in a similar manner to the preparation method of test sample 5 except that trehalose was changed to glycerol (GOL) in the preparation method of test sample 5.
# The enzyme solution from test sample 1, the freeze-thaw product of enzyme from test sample 2, and the freeze-dried products from test samples 3 to 12 were each diluted to 0.012 units/mL with TBS. 0.5 mM β-NAD^+ (manufactured by Oriental Yeast Co., Ltd.) and 0.62 M ethanol were added, and enzyme reaction was left to take place at room temperature for 1 hour. After the reaction, absorbance at 340 nm was measured with a microplate reader (Cytation5, manufactured by Bio Tek Instruments) (n=3, mean±S.D.). The value of this absorbance at 340 nm was divided by the value of absorbance at 340 nm for the enzyme solution of test sample 1 (control) to determine ADH activity.
# [2] = test system: baker's yeast (Saccharomyces cerevisiae F-7); assay: Evaluation of baker's yeast protective activity in freeze-dried condition; assay type: cell-based; conditions: for Numbers of live bacterial cells (relative numbers): baker's yeast freeze-dried with 6% aqueous solution (final concentration 3%), test sample 3 (FD) = 1
# Method: Using test samples 1 to 8 containing baker's yeast prepared in the following manner, microorganism-protective activity with various kinds of sugar in a freeze-dried condition was evaluated.
# Frozen stock of baker's yeast (Saccharomyces cerevisiae F-7, owned by the Microbial Chemistry Research Foundation) was inoculated in 10 mL of YPD culture fluid (1% yeast extract, 2% polypeptone, 2% glucose) and cultured at 27° C. for 2 days while shaking it at 220 rpm. After culture, it was centrifuged at 1,000×g for 5 minutes, washed once with 10 mL of water, and then suspended in 10 mL of water, thus obtaining yeast suspension. 50 μL of water was added to and mixed with 50 μL of this yeast suspension and the mixture was left to stand at 4° C. for 12 hours, preparing control (NF).
# After yeast suspension was prepared in a similar manner to test sample 1, 50 µL of 6% aqueous solution of trehalose was added to and mixed with 50 μL of the yeast suspension, and the mixture was frozen at −80° C. for 1 hour. It was then freeze-dried for 12 hours with a freeze dryer (FLEXI-DRY, manufactured by FTS systems INC., Warminster) connected to a vacuum pump (P65D, manufactured by PHIL Sato Vac INC.), preparing freeze-dried product (TRH) of yeast with TRH.
# Freeze-dried product (4TA) of yeast with 4TA was obtained in a similar manner to the preparation method of test sample 4 except that trehalose was changed to 4-trehalosamine (4TA) in the preparation method of test sample 4.
# Freeze-dried product (MLT) of yeast with MLT was obtained in a similar manner to the preparation method of test sample 4 except that trehalose was changed to maltose (MLT) in the preparation method of test sample 4.
# Freeze-dried product (SCR) of yeast with SCR was obtained in a similar manner to the preparation method of test sample 4 except that trehalose was changed to sucrose (SCR) in the preparation method of test sample 4.
# Freeze-dried product (GOL) of yeast with GOL was obtained in a similar manner to the preparation method of test sample 4 except that trehalose was changed to glycerol (GOL) in the preparation method of test sample 4.
# For test samples 1 and 2, serial suspensions were made by diluting them to 1/10 with saline. 100 μL of water was added to each of the freeze-dried products of test samples 3 to 8 and diluted to 1/10 with saline to make their serial suspensions. 60 μL of water was added to 30 μL of each diluted solution.
# In a 6-well microplate, 2% Agar-YPD was prepared at 3 mL/well, and 90 μL of each diluted solution was inoculated on the 2% Agar-YPD and cultured at 30° C. for two days.
# Wells in which the number of colonies was measurable were selected and the numbers (relative numbers) of live bacterial cells per well on test samples 1, 2, and 4 to 8 when the number of live bacterial cells per well on test sample 3 (FD) was “1” were calculated in consideration of the dilution concentrations of those test samples.
compound,measurement,setting,value
OC[C@H]1O[C@H](O[C@H]2[C@H](O)[C@@H](O)C(O)O[C@@H]2CO)[C@H](O)[C@@H](O)[C@@H]1O (mixture of isomers) [maltose],ADH activity after freeze-drying,[1],good activity was maintained
same,Numbers of live bacterial cells (relative numbers),[2],10
"OC[C@H]1O[C@H](O[C@H]2O[C@H](CO)[C@@H](O)[C@H](O)[C@H]2O)[C@H](O)[C@@H](O)[C@@H]1O [trehalose, reference compound]",ADH activity after freeze-drying,[1],good activity was maintained
same,Numbers of live bacterial cells (relative numbers),[2],100
"OCC(O)CO [GOL, glycerol]",ADH activity after freeze-drying,[1],enzyme activity significantly dropped
same,Numbers of live bacterial cells (relative numbers),[2],0
N[C@H]1[C@H](O)[C@@H](O)[C@@H](O[C@H]2O[C@H](CO)[C@@H](O)[C@H](O)[C@H]2O)O[C@@H]1CO [4-trehalosamine],ADH protection effect compared to other sugars,[1]; freeze-dried,high compared to the other sugars
same,ADH activity after freeze-drying,[1],good activity was maintained
same,Numbers of live bacterial cells (relative numbers),[2],100
same,"protective effect on microorganisms, comparison","[2]; baker's yeast, freeze-dried",stronger than when maltose or sucrose was added
OC[C@H]1O[C@@](CO)(O[C@H]2O[C@H](CO)[C@@H](O)[C@H](O)[C@H]2O)[C@@H](O)[C@@H]1O [sucrose],ADH activity after freeze-drying,[1],good activity was maintained
same,Numbers of live bacterial cells (relative numbers),[2],10
